The values below come from the supplement of paper PMC10883282.

± gives the standard deviation of the averaged measurements.

This assay deals with SK-ES-1. The assay is described as follows: relative viability vs DMSO control (72 h) (fraction); higher = more viable cells. The method in brief:
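Plates held 72 h at 37 °C and 5% CO2 contained sarcoma cell lines seeded in 384-well format to reach 80–90% confluence, plus 2.5 µl of serially diluted compound added after 24 h. Source plate concentrations ran from 10 mM to 0.0002 mM, with 0.1% DMSO as vehicle and a 5 µM positive control. Percent growth from ATPLite readings, averaged over up to triplicate wells, gave relative viability. Values were rescaled with 1 as full and 0 as none.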

As for `Cc1cc(Nc2ncnc3ccc(NC4=NC(C)(C)CO4)cc23)ccc1Oc1ccn2ncnc2c1` [Tucatinib], the relative viability (0.00017 µM) was found to be 1.07 ± 0.025; the relative viability (0.00051 µM) is 1.04 ± 0.043; the relative viability (0.00152 µM) was found to be 1.06 ± 0.039; the relative viability (0.00457 µM) was found to be 1.1 ± 0.022; the relative viability (0.01372 µM) came out at 1.13 ± 0.064; the relative viability (0.04115 µM) is 1.06 ± 0.059. For the same molecule, the relative viability reads like this: (0.1235 µM) 1.08 ± 0.079; (0.3704 µM) 1.06 ± 0.019; (1.111 µM) 1.01 ± 0.011; (3.333 µM) 0.98 ± 0.023; (10 µM) 0.883 ± 0.017.

Turning to `N#CC[C@H](C1CCCC1)n1cc(-c2ncnc3[nH]ccc23)cn1` [Ruxolitinib], the relative viability by setting is: (0.00017 µM) 0.926 ± 0.028; (0.00051 µM) 0.974 ± 0.027; (0.00152 µM) 0.96 ± 0.038; (0.00457 µM) 0.9617 ± 0.0031; (0.01372 µM) 0.942 ± 0.039; (0.04115 µM) 0.95 ± 0.049. This molecule also displayed a relative viability (0.1235 µM) of 0.933 ± 0.024; a relative viability (0.3704 µM) of 0.959 ± 0.044; a relative viability (1.111 µM) of 0.932 ± 0.025; a relative viability (3.333 µM) of 0.897 ± 0.05; a relative viability (10 µM) of 0.812 ± 0.04.

Turning to `Cc1ccc(F)c(NC(=O)Nc2ccc(-c3cccc4[nH]nc(N)c34)cc2)c1` [Linifanib], the relative viability stood at 1.07 ± 0.098 (0.00017 µM); 1.07 ± 0.044 (0.00051 µM); 1.08 ± 0.043 (0.00152 µM); 1.11 ± 0.025 (0.00457 µM); 1.09 ± 0.052 (0.01372 µM); 1.04 ± 0.028 (0.04115 µM). The relative viability runs as follows: (0.1235 µM) 1.04 ± 0.038; (0.3704 µM) 1.05 ± 0.039; (1.111 µM) 1.01 ± 0.032; (3.333 µM) 0.879 ± 0.17; (10 µM) 1.03 ± 0.034.

`Cc1nc(NC(=O)N2CCC[C@H]2C(N)=O)sc1-c1ccnc(C(C)(C)C(F)(F)F)c1` [Alpelisib]: the relative viability reads like this: (0.00017 µM) 1.02 ± 0.032; (0.00051 µM) 1 ± 0.047; (0.00152 µM) 1.01 ± 0.039; (0.00457 µM) 1.01 ± 0.054; (0.01372 µM) 0.995 ± 0.057; (0.04115 µM) 0.931 ± 0.033. The relative viability is, setting by setting: (0.1235 µM) 0.888 ± 0.052; (0.3704 µM) 0.675 ± 0.057; (1.111 µM) 0.558 ± 0.0047; (3.333 µM) 0.425 ± 0.024; (10 µM) 0.289 ± 0.02.

With `CC(C)(C)c1cc(NC(=O)Nc2ccc(-c3cn4c(n3)sc3cc(OCCN5CCOCC5)ccc34)cc2)no1` [Quizartinib], the relative viability reads like this: (0.00017 µM) 0.995 ± 0.028; (0.00051 µM) 1.05 ± 0.05; (0.00152 µM) 1.08 ± 0.014; (0.00457 µM) 1.1 ± 0.036; (0.01372 µM) 1.08 ± 0.037; (0.04115 µM) 1.04 ± 0.011. Further, the relative viability is 1.08 ± 0.035 (0.1235 µM); 1.1 ± 0.069 (0.3704 µM); 0.904 ± 0.033 (1.111 µM); 0.674 ± 0.049 (3.333 µM); 0.594 ± 0.056 (10 µM).

For `CNC(=O)c1ccc(-c2cnc3ncc(Cc4ccc5ncccc5c4)n3n2)cc1F` [Capmatinib], the relative viability was 1.06 ± 0.011 (0.00017 µM); 1.05 ± 0.022 (0.00051 µM); 1.11 ± 0.023 (0.00152 µM); 1.08 ± 0.04 (0.00457 µM); 1.06 ± 0.021 (0.01372 µM); 1.09 ± 0.015 (0.04115 µM). Moreover, the relative viability reads like this: (0.1235 µM) 1.09 ± 0.048; (0.3704 µM) 1.08 ± 0.049; (1.111 µM) 1.12 ± 0.03; (3.333 µM) 1.08 ± 0.026; (10 µM) 1.07 ± 0.026.

Take `CC(C)N1CCN(Cc2cnc(-c3cc(-c4cccc5[nH]ccc45)cc4[nH]ncc34)o2)CC1` [Nemiralisib]: the relative viability (0.00017 µM) came to 0.934 ± 0.039; the relative viability (0.00051 µM) was determined as 0.915 ± 0.03; the relative viability (0.00152 µM) amounted to 0.945 ± 0.034; the relative viability (0.00457 µM) came out at 0.932 ± 0.035; the relative viability (0.01372 µM) is 0.985 ± 0.068; the relative viability (0.04115 µM) amounted to 0.957 ± 0.041. Moreover, the relative viability by setting is: (0.1235 µM) 0.977 ± 0.026; (0.3704 µM) 0.961 ± 0.055; (1.111 µM) 0.931 ± 0.04; (3.333 µM) 0.76 ± 0.027; (10 µM) 0.114 ± 0.053.

`C[C@@H](c1ccc2nccn2c1)n1nnc2ncc(-c3cnn(C)c3)nc21` [Volitinib] came in with a relative viability (0.00017 µM) of 1.02 ± 0.025; a relative viability (0.00051 µM) of 1.01 ± 0.06; a relative viability (0.00152 µM) of 1.05 ± 0.031; a relative viability (0.00457 µM) of 1.07 ± 0.021; a relative viability (0.01372 µM) of 1.05 ± 0.047; a relative viability (0.04115 µM) of 1.04 ± 0.033. The relative viability by setting is: (0.1235 µM) 1.04 ± 0.051; (0.3704 µM) 1.03 ± 0.036; (1.111 µM) 1.05 ± 0.1; (3.333 µM) 1.05 ± 0.058; (10 µM) 1.01 ± 0.083.

With `COc1c(OCCCN2CCOCC2)ccc2c1N=C(NC(=O)c1cnc(N)nc1)N1CCN=C21` [Copanlisib], the relative viability was 1.02 ± 0.022 (0.00017 µM); 1.07 ± 0.036 (0.00051 µM); 1.01 ± 0.021 (0.00152 µM); 0.808 ± 0.019 (0.00457 µM); 0.629 ± 0.015 (0.01372 µM); 0.4325 ± 0.0023 (0.04115 µM). For the same molecule, the relative viability stood at 0.3049 ± 0.0025 (0.1235 µM); 0.214 ± 0.016 (0.3704 µM); 0.15 ± 0.0035 (1.111 µM); 0.0822 ± 0.0034 (3.333 µM); 0.0455 ± 0.0028 (10 µM).

On to `CCN1CCN(Cc2ccc(Nc3ncc(F)c(-c4cc(F)c5nc(C)n(C(C)C)c5c4)n3)nc2)CC1` [Abemaciclib], for which the relative viability reads like this: (0.00017 µM) 1.03 ± 0.032; (0.00051 µM) 1.04 ± 0.027; (0.00152 µM) 0.995 ± 0.031; (0.00457 µM) 1 ± 0.052; (0.01372 µM) 0.922 ± 0.055; (0.04115 µM) 0.728 ± 0.018. In addition, the relative viability was 0.481 ± 0.035 (0.1235 µM); 0.413 ± 0.012 (0.3704 µM); 0.38 ± 0.0066 (1.111 µM); 0.346 ± 0.01 (3.333 µM); 0.00807 ± 0.00042 (10 µM).

`C[C@]1(O)C[C@@H](c2nc(-c3ccc4ccc(-c5ccccc5)nc4c3)c3c(N)nccn32)C1` [Linsitinib] registered a relative viability (0.00017 µM) of 1.05 ± 0.039; a relative viability (0.00051 µM) of 1.05 ± 0.034; a relative viability (0.00152 µM) of 1.08 ± 0.019; a relative viability (0.00457 µM) of 1.07 ± 0.051; a relative viability (0.01372 µM) of 1.03 ± 0.067; a relative viability (0.04115 µM) of 0.967 ± 0.038. Moreover, the relative viability runs as follows: (0.1235 µM) 0.75 ± 0.026; (0.3704 µM) 0.479 ± 0.042; (1.111 µM) 0.341 ± 0.013; (3.333 µM) 0.308 ± 0.013; (10 µM) 0.21 ± 0.0051.

Regarding `Cc1ccc(NC(=O)c2ccc(CN3CCN(C)CC3)cc2)cc1Nc1nc(-c2cccnc2)cs1` [Masitinib], the relative viability (0.00017 µM) came out at 1 ± 0.018; the relative viability (0.00051 µM) was found to be 0.9842 ± 0.008; the relative viability (0.00152 µM) amounted to 0.999 ± 0.032; the relative viability (0.00457 µM) is 1.06 ± 0.013; the relative viability (0.01372 µM) was found to be 0.981 ± 0.033; the relative viability (0.04115 µM) was 1.01 ± 0.017. The relative viability runs as follows: (0.1235 µM) 1 ± 0.042; (0.3704 µM) 0.93 ± 0.05; (1.111 µM) 0.817 ± 0.039; (3.333 µM) 0.5209 ± 0.0016; (10 µM) 0.138 ± 0.012.

Turning to `CN1CCN(c2ccc3nc(-c4c(N)c5c(F)cccc5[nH]c4=O)[nH]c3c2)CC1` [Dovitinib], the relative viability runs as follows: (0.00017 µM) 1.02 ± 0.013; (0.00051 µM) 1.07 ± 0.037; (0.00152 µM) 1.044 ± 0.0086; (0.00457 µM) 1.03 ± 0.022; (0.01372 µM) 1.07 ± 0.015; (0.04115 µM) 0.963 ± 0.049. The relative viability by setting is: (0.1235 µM) 0.937 ± 0.039; (0.3704 µM) 0.676 ± 0.012; (1.111 µM) 0.365 ± 0.0063; (3.333 µM) 0.155 ± 0.017; (10 µM) 0.0451 ± 0.0026.
